From patent US20230310539A1, “TREATMENT OF DISEASE WITH EPOR ANTAGONIST” (Epo-Med Inc., priority 2020, published 2023)
Where a SMILES comes first, the peptide text is derived from it. Bridges are numbered along the chain shown (N, C = ends). [ ]: non-standard residue; d: D form. Ala(benzothiazol-2-yl) = N[C@@H](Cc1nc2ccccc2s1)C(=O)O; NH = not defined here

B1: human erythropoietin receptor (EpoR), wild-type (receptor)
chain: APPPNLPDPKFESKAALLAARGPEELLCFTERLEDLVCFWEEAASAGVGPGNYSFSYQLEDEPWKLCRLHQAPTARGAVRFWCSLPTADTSSFVPLELRVTAASGAPRYHRVIHINEVVLLDAPVGLVARLADESGHVVLRWLPPPETPMTSHIRYEVDVSAGNGAGSVQRVEILEGRTECVLSNLRGRTRYTFAVRARMAEPSFGGFWSAWSEPVSLLTPSDLDPLILTLSLILVVILVLLTVLALLSHRRALKQKIWPGIPSPESEFEGLFTTHKGNFQLWLYQNDGCLWWSPCTPFTEDPPASLEVLSERCWGTMQAVEPGTDDEGPLLEPVGSEHAQDTYLVLDKWLLPRNPPSEDLPGPGGSVDIVAMDEGSEASSCSSALASKPSPEGASAASFEYTILDPSSQLLRPWTLCPELPPTPPHLKYLYLVVSDSGISTDYSSGDSQGAQGGLSDGPYSNPYENSLIPAAEPLPPSYVACS
notes: Endogenous on human AsPC-1, HCC1806 and UT-7/Epo cells, or overexpressed from a vector in AsPC-1 and 293T cells; also called Epo receptor; wild-type EpoR

Assays:
[1] = Body weight of AsPC-1 cancer bearing mice; format: in vivo, mouse; conditions: ERA-350 0.2 mg/day intraperitoneally, twice a week for 4 weeks
Protocol: AsPC-1 cells cultured in the similar manner as Example 1 were collected, suspended in RPMI-1640 medium containing 10% Matrigel (BD Bioscience, 354234), and transplanted subcutaneously to the right side on the back of a 6-week-old male nude mouse (Japan SLC, BALB/cSlc-nu/nu) (5×10^6/0.1 mL/mouse). The length (L) and width (W) of the tumor were measured using a digital caliper. When the tumor volume (V) calculated from the formula V=L×W^2/2 reached about 150 to 200 mm^3, the mice were separated into groups and administered with test compounds (ERA-350 and ERA-350+gemcitabine). Saline was administered to a control group. The compounds were administered intraperitoneally (0.1 mL/mouse, 6 mice/test compound) once daily (0.2 mg/day for ERA-350, and 1 mg/day for gemcitabine), twice a week for 4 weeks. The tumor size and body weight were measured twice a week to monitor the effect of the administration of test compounds.

EpoR in AsPC-1 cells = target: T1, EpoR in AsPC-1 cells (Homo sapiens, UniProt P19235); assay: Immunofluorescence co-localization of biotin-labeled anti-EpoR peptide with EpoR in AsPC-1 cells; format: cell-based; conditions: 100 μM, 1 hour at 37° C.
T1 construct: The test used human pancreatic cancer derived AsPC-1 cells (ECACC, 96020930); host or cells: AsPC-1
T1 sequence (P19235 25-508): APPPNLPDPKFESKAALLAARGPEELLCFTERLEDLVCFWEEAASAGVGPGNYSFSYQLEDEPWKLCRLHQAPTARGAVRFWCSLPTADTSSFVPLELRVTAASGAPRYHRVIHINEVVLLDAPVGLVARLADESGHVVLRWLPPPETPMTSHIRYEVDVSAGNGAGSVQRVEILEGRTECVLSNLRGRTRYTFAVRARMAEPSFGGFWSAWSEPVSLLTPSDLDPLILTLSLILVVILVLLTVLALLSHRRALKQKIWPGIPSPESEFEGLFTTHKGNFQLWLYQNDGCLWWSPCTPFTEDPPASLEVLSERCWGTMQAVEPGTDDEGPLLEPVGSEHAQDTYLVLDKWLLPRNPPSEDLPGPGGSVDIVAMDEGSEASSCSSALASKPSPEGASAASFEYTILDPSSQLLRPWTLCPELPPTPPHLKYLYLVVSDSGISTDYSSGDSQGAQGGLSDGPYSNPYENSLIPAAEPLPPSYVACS
Protocol: (§1) The test used human pancreatic cancer derived AsPC-1 cells (ECACC, 96020930) and human breast cancer derived HCC1806 cells (ATCC, CRL-2335) that were passaged (twice/week) under the condition of 37° C. and 5% CO2-95% air using RPMI-1640 medium (Sigma, R8758-500 ML) containing 10% fetal bovine serum (biowest, S182H-500) and 1 mM sodium pyruvate (gibco, 11360-070).
(§2) These bone marrow cells (2×10^6 cells) and cancer cells (AsPC-1 cells and HCC1806 cells; both 2×10^3 cells) were incubated with GT-11352 (biotin labeled, 100 μM) for 1 hour at 37° C. in the presence or absence of recombinant human erythropoietin (rhEpo) (10 U/mL). Subsequently, the cells were fixed with formalin, blocked, and subjected to immunofluorescent staining. The nucleus was stained by DAPI staining. The cells were observed through fluorescence with a microscope (Keyence, BZ-X800). The following antibodies were used. • EpoR detection: rat anti-EpoR antibody (Merck, clone BCO-3H2) and anti-rat IgG-Alexa® Fluor 594 (Abcam, ab150160) • GT-11352 detection: streptavidin-FITC (Tokyo Chemical Industry, S0966)

[2] = target: T2, EpoR in bone marrow cells (Mus musculus, UniProt P14753); assay: Immunofluorescence co-localization of biotin-labeled anti-EpoR peptide with EpoR in bone marrow cells; format: cell-based; conditions: 100 μM, 1 hour at 37° C.
T2 construct: tissue Japan SLC; host or cells: mouse (ICR, female) femur bone marrow cells
T2 sequence (P14753 25-507): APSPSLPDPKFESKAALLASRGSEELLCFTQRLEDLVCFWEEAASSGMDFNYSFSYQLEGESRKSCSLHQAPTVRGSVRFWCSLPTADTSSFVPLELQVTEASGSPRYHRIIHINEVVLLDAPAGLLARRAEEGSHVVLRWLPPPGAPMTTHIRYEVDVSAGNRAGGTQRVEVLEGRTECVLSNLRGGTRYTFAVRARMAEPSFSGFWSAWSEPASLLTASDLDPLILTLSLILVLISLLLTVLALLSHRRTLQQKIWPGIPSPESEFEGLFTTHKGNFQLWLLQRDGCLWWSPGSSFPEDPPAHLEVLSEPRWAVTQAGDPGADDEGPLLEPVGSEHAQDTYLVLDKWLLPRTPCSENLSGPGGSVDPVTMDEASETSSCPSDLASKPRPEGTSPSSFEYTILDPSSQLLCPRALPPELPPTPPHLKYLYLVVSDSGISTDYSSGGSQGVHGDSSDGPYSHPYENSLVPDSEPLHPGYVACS
Protocol: Bone marrow cells were harvested from mouse femur (Japan SLC, ICR, female).
as §2

EpoR in HCC1806 cells = target: T3, EpoR in HCC1806 cells (Homo sapiens, UniProt P19235); assay: Immunofluorescence co-localization of biotin-labeled anti-EpoR peptide with EpoR in HCC1806 cells; format: cell-based; conditions: 100 μM, 1 hour at 37° C.
T3 construct: human breast cancer derived HCC1806 cells (ATCC, CRL-2335); host or cells: HCC1806
T3 sequence (P19235 25-508): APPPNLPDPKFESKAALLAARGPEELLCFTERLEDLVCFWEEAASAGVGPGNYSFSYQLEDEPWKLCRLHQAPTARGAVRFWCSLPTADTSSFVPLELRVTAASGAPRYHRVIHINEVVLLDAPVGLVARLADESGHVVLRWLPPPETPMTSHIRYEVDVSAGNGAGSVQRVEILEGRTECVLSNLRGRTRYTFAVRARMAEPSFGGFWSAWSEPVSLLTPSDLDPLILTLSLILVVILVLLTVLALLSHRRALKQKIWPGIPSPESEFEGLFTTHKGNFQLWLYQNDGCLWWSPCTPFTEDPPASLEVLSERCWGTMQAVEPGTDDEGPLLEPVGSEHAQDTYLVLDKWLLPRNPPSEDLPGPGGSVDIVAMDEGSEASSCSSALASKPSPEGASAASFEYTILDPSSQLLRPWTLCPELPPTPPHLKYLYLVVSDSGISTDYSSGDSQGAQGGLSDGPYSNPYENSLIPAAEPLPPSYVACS
Protocol: as §1, §2

[3] = target: T4, human βcR (CD131, CSF2RB) (human, UniProt P32927 17-897); assay: co-immunoprecipitation from membrane fractions of AsPC-1 cells (IP with anti-EpoR VP-2E8, blot with anti-EpoR BCO-3H2 or anti-βcR polyclonal antibody)
T4 construct: Endogenous on AsPC-1 and HCC1806 cells; also called βc receptor; IL3RB
T4 sequence: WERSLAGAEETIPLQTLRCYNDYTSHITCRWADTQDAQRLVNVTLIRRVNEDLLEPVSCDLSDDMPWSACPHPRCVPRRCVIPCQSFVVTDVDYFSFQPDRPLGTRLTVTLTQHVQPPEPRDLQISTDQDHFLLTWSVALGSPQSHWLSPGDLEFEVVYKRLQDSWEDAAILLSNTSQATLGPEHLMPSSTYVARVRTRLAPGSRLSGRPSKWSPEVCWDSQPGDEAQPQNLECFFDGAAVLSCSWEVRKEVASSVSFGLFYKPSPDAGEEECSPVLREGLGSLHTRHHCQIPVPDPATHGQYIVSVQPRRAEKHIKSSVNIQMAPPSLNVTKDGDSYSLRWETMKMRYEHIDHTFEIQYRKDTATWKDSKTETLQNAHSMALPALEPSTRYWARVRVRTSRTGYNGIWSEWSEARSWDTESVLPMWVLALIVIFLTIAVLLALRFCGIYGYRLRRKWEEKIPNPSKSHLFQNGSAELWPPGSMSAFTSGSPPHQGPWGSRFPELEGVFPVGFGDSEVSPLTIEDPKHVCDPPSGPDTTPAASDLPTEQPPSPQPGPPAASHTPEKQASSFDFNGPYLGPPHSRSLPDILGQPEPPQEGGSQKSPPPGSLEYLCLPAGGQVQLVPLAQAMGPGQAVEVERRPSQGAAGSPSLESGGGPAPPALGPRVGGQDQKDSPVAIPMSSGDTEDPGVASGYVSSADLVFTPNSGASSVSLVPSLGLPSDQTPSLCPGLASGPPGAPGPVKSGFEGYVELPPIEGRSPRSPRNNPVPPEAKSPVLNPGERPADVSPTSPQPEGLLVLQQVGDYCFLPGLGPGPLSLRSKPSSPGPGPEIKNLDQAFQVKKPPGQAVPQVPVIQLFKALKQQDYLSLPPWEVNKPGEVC
Protocol: The stable expression strain was cultured and collected. Membrane fractions were prepared using a commercially available membrane protein extraction kit (Mem-PER Plus Membrane Protein Extraction Kit, Thermo Scientific).

[4] = target: B1; assay: immunofluorescence colocalization on AsPC-1 and HCC1806 cells, GT-11352 100 µM, no rhEpo

## CSCC[C@@H]1NC(=O)[C@@H]2CCCN2C(=O)CNC(=O)[C@H](Cc2ccc(O)cc2)NC(=O)[C@H](Cc2c[nH]cn2)NC(=O)[C@@H](NC(=O)[C@H](CO)NC(C)=O)CSSC[C@@H](C(=O)N[C@@H](CCCCN)C(N)=O)NC(=O)[C@H](C(C)C)NC(=O)[C@H](Cc2nc3ccccc3s2)NC(=O)[C@H]([C@@H](C)O)NC1=O [ERA-350] (Ac-SCHYGPMT[Ala(benzothiazol-2-yl)]VCK-NH2; disulfide 2-11)
[1]
  Body weight: did not affect the body weight

## Ac-SCHYGPLT (2-benzothiazolylalanine)VCK-NH-(biotin) [GT-11352]
EpoR in AsPC-1 cells; absence of erythropoietin
  Co-localization of EpoR and peptide: exhibited colocalization
EpoR in AsPC-1 cells; presence of rhEpo 10 U/mL
  Co-localization of EpoR and peptide: exhibited colocalization
[2]; absence of erythropoietin
  Co-localization of EpoR and peptide: exhibited colocalization
[2]; presence of rhEpo 10 U/mL
  Co-localization of EpoR and peptide: did not exhibit co-localization
EpoR in HCC1806 cells; absence of erythropoietin
  Co-localization of EpoR and peptide: exhibited colocalization
EpoR in HCC1806 cells; presence of rhEpo 10 U/mL
  Co-localization of EpoR and peptide: exhibited colocalization

## B1
[3]
  binding result: binds

B2: Ac-SCHYGPLT (2-benzothiazolylalanine)VCK-NH-(biotin) (GT-11352) (peptide)
peptide: Ac-SCHYGPLT[Ala(benzothiazol-2-yl)]VCK-{NH-biotin}
modifications: disulfide 2-11; reading uncertain; also: printed as Ac-SCHYGPLT (2-benzothiazolylalanine)VCK-NH-(biotin)
notes: Synthetic, biotin-labeled peptide; also called anti-EpoR peptide
[4]
  binding result: binds
